In paper PMC4378623, “Plant membrane assays with cytokinin receptors underpin the unique role of free cytokinin bases as biologically active ligands” (Journal of Experimental Botany, 2015):

Columns and labels:
AHK3 [1] = target: T1, AHK3 (Arabidopsis thaliana, UniProt Q9C5U1); test: biochemical
T1 sequence (Q9C5U1 1-1036): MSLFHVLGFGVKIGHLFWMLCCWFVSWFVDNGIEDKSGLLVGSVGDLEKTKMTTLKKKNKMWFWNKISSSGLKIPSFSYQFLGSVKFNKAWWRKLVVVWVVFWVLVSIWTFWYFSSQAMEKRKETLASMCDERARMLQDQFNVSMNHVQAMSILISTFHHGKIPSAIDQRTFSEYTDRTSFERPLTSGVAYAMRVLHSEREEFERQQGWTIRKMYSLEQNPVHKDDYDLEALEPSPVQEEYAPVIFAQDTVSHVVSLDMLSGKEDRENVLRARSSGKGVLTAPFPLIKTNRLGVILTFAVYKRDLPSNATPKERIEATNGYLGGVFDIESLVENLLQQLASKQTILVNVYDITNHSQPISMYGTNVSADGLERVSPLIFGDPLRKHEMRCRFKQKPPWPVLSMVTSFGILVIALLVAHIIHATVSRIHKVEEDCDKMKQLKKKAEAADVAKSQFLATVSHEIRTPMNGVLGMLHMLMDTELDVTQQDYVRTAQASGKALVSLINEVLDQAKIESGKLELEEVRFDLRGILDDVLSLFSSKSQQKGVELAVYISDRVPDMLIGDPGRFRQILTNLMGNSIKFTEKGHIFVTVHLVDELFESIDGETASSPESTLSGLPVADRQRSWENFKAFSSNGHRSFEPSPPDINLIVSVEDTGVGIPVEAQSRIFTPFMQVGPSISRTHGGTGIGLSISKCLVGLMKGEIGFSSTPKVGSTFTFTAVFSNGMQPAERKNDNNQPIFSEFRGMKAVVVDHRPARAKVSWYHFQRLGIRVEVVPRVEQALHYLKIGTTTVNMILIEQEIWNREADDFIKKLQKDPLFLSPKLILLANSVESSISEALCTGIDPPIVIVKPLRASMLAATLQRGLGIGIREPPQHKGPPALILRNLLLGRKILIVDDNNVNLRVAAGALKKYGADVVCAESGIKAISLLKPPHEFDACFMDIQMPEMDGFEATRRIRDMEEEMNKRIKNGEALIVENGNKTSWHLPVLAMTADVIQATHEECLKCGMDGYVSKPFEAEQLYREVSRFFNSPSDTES
From the text: [3H]tZ saturation binding to plant microsomes, Scatchard on AHK3

AHK2 [2] = target: T2, AHK2 (Arabidopsis thaliana, UniProt Q9C5U2); test: biochemical
T2 sequence (Q9C5U2 1-1176): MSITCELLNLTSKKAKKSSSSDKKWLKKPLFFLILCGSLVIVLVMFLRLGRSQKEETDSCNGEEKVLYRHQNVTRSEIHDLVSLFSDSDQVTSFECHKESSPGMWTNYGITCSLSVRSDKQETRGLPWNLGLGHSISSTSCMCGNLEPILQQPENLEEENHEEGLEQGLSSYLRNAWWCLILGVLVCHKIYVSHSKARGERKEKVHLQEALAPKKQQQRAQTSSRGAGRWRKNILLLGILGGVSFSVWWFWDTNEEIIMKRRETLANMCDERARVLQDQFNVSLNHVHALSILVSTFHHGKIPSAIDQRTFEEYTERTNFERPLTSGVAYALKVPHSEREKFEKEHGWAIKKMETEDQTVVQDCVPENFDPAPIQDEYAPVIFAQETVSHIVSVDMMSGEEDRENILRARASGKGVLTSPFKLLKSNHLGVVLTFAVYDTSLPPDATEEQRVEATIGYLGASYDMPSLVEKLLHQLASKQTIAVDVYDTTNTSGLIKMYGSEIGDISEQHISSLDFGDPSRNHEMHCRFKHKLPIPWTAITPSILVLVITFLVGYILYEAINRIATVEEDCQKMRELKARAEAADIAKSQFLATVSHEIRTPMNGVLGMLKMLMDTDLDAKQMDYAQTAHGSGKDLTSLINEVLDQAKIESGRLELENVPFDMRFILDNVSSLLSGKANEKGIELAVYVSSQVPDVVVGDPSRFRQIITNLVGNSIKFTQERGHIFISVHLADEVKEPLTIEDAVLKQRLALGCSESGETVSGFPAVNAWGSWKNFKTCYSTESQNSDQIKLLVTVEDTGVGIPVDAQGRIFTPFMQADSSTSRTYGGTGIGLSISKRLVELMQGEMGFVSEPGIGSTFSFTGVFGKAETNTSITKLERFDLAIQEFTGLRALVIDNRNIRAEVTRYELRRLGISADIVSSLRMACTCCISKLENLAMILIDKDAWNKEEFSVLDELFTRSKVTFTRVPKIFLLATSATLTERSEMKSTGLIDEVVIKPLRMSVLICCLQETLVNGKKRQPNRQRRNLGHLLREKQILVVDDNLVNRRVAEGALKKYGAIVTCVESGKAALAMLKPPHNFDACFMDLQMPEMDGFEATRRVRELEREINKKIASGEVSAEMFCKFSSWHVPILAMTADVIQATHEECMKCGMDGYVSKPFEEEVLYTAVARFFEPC
From the text: [3H]tZ saturation binding to plant microsomes, Scatchard on AHK2

AHK4 = AHK4 (Arabidopsis thaliana, UniProt Q9C5U0); test: biochemical
AHK4, sequence (Q9C5U0 whole entry): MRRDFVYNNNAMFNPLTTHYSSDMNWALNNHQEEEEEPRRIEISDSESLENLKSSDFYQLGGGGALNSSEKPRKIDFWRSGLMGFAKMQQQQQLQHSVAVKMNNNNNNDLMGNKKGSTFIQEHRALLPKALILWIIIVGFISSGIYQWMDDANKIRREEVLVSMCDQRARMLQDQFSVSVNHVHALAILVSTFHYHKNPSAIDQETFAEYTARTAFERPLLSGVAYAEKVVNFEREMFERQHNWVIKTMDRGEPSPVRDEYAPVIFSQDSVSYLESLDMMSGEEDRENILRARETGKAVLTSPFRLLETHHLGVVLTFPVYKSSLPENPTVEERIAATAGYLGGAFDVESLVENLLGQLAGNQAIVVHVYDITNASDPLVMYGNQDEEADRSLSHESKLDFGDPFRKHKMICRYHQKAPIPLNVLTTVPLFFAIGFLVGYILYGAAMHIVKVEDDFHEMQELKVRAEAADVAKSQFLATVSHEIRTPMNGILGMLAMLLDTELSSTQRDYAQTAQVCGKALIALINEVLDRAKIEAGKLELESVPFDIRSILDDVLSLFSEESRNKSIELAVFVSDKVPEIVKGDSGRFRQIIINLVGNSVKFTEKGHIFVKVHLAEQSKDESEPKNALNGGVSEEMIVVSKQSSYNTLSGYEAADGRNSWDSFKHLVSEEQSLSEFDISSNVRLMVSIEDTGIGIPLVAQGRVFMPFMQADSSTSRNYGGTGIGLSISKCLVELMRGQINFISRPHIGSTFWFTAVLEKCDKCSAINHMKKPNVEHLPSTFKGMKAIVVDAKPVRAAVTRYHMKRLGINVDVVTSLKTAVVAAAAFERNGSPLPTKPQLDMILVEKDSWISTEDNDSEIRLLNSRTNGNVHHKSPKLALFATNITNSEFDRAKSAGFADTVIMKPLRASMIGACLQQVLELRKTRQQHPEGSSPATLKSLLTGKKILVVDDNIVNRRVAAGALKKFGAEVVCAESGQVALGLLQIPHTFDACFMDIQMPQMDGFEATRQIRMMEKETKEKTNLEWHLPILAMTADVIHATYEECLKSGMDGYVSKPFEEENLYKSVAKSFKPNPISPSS

ZmHK1 [3] = target: T3, ZmHK1 (Zea mays, UniProt Q9FRY7); test: biochemical
T3 sequence (Q9FRY7 1-974): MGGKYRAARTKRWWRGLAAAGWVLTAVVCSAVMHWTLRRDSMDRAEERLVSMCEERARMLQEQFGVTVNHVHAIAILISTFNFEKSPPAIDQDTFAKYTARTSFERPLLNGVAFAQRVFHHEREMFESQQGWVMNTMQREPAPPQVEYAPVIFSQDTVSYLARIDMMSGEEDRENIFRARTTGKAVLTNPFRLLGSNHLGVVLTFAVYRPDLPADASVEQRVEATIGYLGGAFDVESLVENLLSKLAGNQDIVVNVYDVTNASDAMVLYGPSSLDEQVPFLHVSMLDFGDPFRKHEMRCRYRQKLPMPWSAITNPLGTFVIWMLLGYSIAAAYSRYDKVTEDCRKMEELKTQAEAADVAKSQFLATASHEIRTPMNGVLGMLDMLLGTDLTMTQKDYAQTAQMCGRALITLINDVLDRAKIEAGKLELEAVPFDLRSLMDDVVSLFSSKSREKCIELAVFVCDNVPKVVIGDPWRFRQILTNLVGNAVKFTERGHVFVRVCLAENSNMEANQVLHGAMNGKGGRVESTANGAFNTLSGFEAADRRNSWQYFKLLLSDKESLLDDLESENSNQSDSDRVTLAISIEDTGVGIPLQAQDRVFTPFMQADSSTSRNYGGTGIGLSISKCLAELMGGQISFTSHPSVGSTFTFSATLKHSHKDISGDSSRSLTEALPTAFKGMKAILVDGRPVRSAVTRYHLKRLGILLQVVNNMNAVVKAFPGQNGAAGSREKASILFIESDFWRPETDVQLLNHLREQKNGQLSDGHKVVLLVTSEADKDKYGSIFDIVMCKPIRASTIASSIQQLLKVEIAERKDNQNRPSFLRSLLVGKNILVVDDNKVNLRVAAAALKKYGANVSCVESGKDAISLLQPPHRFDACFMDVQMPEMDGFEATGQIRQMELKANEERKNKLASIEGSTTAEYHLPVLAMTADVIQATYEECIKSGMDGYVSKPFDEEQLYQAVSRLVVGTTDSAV
From the text: [3H]tZ saturation binding to plant microsomes, Scatchard on ZmHK1

AHK3 [4] = target: T1, AHK3; test: competition with [3H]tZ, plant microsomes; assay type: binding; parameters: full-length cDNA in pB7FWG2-AHK3, C-terminal eGFP fusion, transiently expressed in Nicotiana benthamiana leaves, microsomes; details: pH 7.4, 0-4 °C
From the text: competition with [3H]tZ, plant microsomes on AHK3

AHK2 [5] = target: T2, AHK2; test: competition with [3H]tZ, plant microsomes; assay type: binding; details: pH 7.4, 0-4 °C
From the text: competition with [3H]tZ, plant microsomes on AHK2

ZmHK1 [6] = target: T3, ZmHK1; test: competition with [3H]tZ, plant microsomes; assay type: binding; parameters: full-length coding region in pB7FWG2-ZmHK1, C-terminal eGFP fusion, transiently expressed in Nicotiana benthamiana leaves, microsomes; details: pH 7.4, 0-4 °C

| Kd (AHK3 [1]) [nM] | Kd (AHK2 [2]) [nM] | Kd (AHK4) [nM] | Kd (ZmHK1 [3]) [nM] | Kd (AHK3 [4]) [nM] | Kd (AHK2 [5]) [nM] | Kd (ZmHK1 [6]) [nM] | Compound |
| --- | --- | --- | --- | --- | --- | --- | --- |
| 4.26 ± 1.69 | 1.93 ± 0.26 | 2 to 8 | 7.97 ± 1.96 |  |  |  | C/C(=C\CNc1ncnc2[nH]cnc12)CO [tZ, trans-zeatin] |
|  |  |  |  | > 10000 |  |  | Nc1ncnc2nc[nH]c12 [Ade, adenine] |
|  |  |  |  | 33.1 ± 6.2 | 161 ± 55 | 128 ± 47 | C[C@H](CO)CCNc1ncnc2nc[nH]c12 [DZ, dihydrozeatin] |
|  |  |  |  | 42 ± 13.5 | 1.42 ± 0.52 | 0.61 ± 0.27 | CC(C)=CCNc1ncnc2nc[nH]c12 [iP, isopentenyladenine] |
